Patent US9510598B2, “Nitrogen-containing heterocyclic compounds for plant disease control” (BAYER CROPSCIENCE AG, priority 2012, dated 2016)
“And” between values parts separate entries of the source, which are not always exact repeats. Identical values can stand only once. Like-named read-outs stand apart in the source and are kept apart here.

Columns and labels:
[1] = format: physicochemical
Botrytis cinerea = assay: In vivo preventive test on Botrytis cinerea (grey mould); details: 500 ppm; gherkin plants sprayed 24 hours before contamination; grading 4-5 days after contamination vs control plants
How it was run: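 Gherkin plants ("Vert petit de Paris") sprayed with compound at Z11 cotyledon stage, then inoculated 24 h later with B. cinerea spores (50 000/ml) in PDB/fructose/NH4NO3/KH2PO4 nutrient solution. Incubated at 17 °C, 80% RH; % efficacy versus solvent-treated controls graded 4–5 days after contamination.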

Phytophthora infestans = format: in vivo; details: 500 ppm; tomato plants sprayed 24 hours before contamination; grading 5 days after contamination vs control plants
Sphaerotheca fuliginea = assay: In vivo preventive test on Sphaerotheca fuliginea (powdery mildew on cucurbits); details: 500 ppm; gherkin plants sprayed 24 hours before contamination; grading 12 days after contamination vs control plants
How it was run: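 Preventive spray of gherkin plants at Z11 cotyledon stage, grown at 24° C; inoculation 24 hours later with Sphaerotheca fuliginea spores (100 000 spores per ml). Efficacy graded 12 days post-inoculation as % versus solvent-treated control plants.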

Septoria tritici = assay: In vivo preventive test on Septoria tritici (leaf spot on wheat); details: 500 ppm; wheat plants sprayed 24 hours before contamination; grading 21 to 28 days after contamination vs control plants
How it was run: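 Scipion wheat at 1-leaf stage sprayed with compound, controls receiving acetone/tween/DMSO/water vehicle; 24 h later leaves inoculated with Septoria tritici spores (500 000 spores per ml). Efficacy (%) graded versus control plants 21 to 28 days after contamination.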

[2] = HPLC on reversed phase columns, method [a]: pH 2.7, 0.1% formic acid in water / acetonitrile, linear gradient 10% to 95% acetonitrile
[3] = method [a]: HPLC/LC-MS on reversed phase at pH 2.7, 0.1% formic acid in water / acetonitrile, linear gradient 10% to 95% acetonitrile
[4] = method [a]: HPLC/LC-MS on reversed phase at pH 2.7, 0.1% formic acid in water / acetonitrile, gradient 10% to 95% acetonitrile
[5] = HPLC on reversed phase columns, method [a]: pH 2.7, 0.1% formic acid in water and acetonitrile, linear gradient 10% to 95% acetonitrile

| Compound | log P [1, 2] | % of efficacy (protection) (Botrytis cinerea) | % of efficacy (protection) (Phytophthora infestans) | log P [1, 3] | % of efficacy (protection) (Sphaerotheca fuliginea) | % of efficacy (protection) (Septoria tritici) | log P [1, 4] | log P [1, 5] |
| --- | --- | --- | --- | --- | --- | --- | --- | --- |
| C#Cc1cnc2ccc(C3=NOC(C)(C(=O)NC(C)(C)c4nc(C)cs4)C3)cc2c1 (stereo not drawn) [compound 516] | 2.92[a] | 100% | 73% |  |  |  |  |  |
| C#Cc1cnc2ccc(C3=NOC(C)(C(=O)NCc4c(C)nn(CC)c4C)C3)cc2c1 (stereo not drawn) [compound 87] |  | 97% | 100% | 2.08^[a] | 89% |  |  |  |
| C#Cc1cnc2ccc(C3=NOC(C)(C(=O)NC(C)C)C3)cc2c1 (stereo not drawn) [compound 40] |  | 100% | 97% | 2.28^[a] | 100% | 100% |  |  |
| CC1(C)OCC(CNC(=O)C2(C)CC(c3ccc4ncc(I)cc4c3)=NO2)O1 (stereo not drawn) [compound 474] |  | 100% | 78% |  | 98% | 97% | 2.78[a] |  |
| C#Cc1cnc2ccc(C3=NOC(OC)(C(=O)NCc4c(C)cnn4CCC)C3)cc2c1 (stereo not drawn) [compound 409] |  | 100% | 100% |  | 98% | 100% | 2.33[a] |  |
| C#Cc1cnc2c(Cl)cc(C3=NOC(C)(C(=O)NCc4cn(CC)nc4C)C3)cc2c1 (stereo not drawn) [compound 550] | 2.53[a] | 98% | 83% |  | 80% | 100% |  |  |
| C#Cc1cnc2ccc(C3=NOC(C)(C(=O)NCc4cnn(CC)c4C)C3)cc2c1 (stereo not drawn) [compound 195] |  | 97% | 100% | 2.11^[a] | 98% | 100% |  |  |
| CCn1cc(C(C)NC(=O)C2(C)CC(c3ccc4ncc(Br)cc4c3)=NO2)c(C)n1 (stereo not drawn) [compound 312] | 2.52[a] |  | 100% |  | 94% | 100% |  |  |
| C#Cc1cnc2ccc(C3=NOC(C)(C(=O)NC(C)COCC)C3)cc2c1 (stereo not drawn) [compound 506] |  | 100% | 94% |  | 97% | 100% | 2.55[a] |  |
| CCn1cc(CNC(=O)C2(SC)CC(c3ccc4ncc(Br)cc4c3)=NO2)c(C)n1 (stereo not drawn) [compound 565] | 2.51[a] | 100% | 99% |  | 98% | 100% |  |  |
| CCn1cc(CNC(=O)C2(CC)CC(c3ccc4ncc(Br)cc4c3)=NO2)c(C)n1 (stereo not drawn) [compound 70] |  | 93% | 82% | 2.66^[a] | 100% | 100% |  |  |
| C#Cc1cnc2ccc(C3=NOC(C)(C(=O)NCc4c(C)nn(C(C)C)c4C)C3)cc2c1 (stereo not drawn) [compound 196] |  |  | 94% | 2.32^[a] |  |  |  |  |
| CCn1cc(CNC(=O)C2(C)CC(c3ccc4ncc(Br)cc4c3)=NO2)cn1 (stereo not drawn) [compound 182] |  | 99% | 83% | 2.27^[a] | 98% |  |  |  |
| CCn1ncc(CNC(=O)C2(C)CC(c3ccc4ncc(Br)cc4c3)=NO2)c1C (stereo not drawn) [compound 100] |  | 97% | 98% | 2.37^[a] | 94% | 75% |  |  |
| CON=CC(C)(C)NC(=O)C1(C)CC(c2ccc3ncc(Br)cc3c2)=NO1 (stereo not drawn) [compound 298] | 3.29[a] | 87% | 100% |  |  | 100% |  |  |
| C#Cc1cnc2ccc(C3=NOC(C)(C(=O)NC(C)COC)C3)cc2c1 (racemic) [compound 365] |  |  | 79% |  | 98% | 100% | 2.26[a] |  |
| C#Cc1cnc2ccc(C3=NOC(C=C)(C(=O)NCC4COC(C)(C)O4)C3)cc2c1 (stereo not drawn) [compound 725] |  | 98% | 83% |  | 98% | 100% |  | 2.66[a] |
| C#Cc1cnc2ccc(C3=NOC(C)(C(=O)NC(C)c4cn(CC)nc4C)C3)cc2c1 (stereo not drawn) [compound 351] | 2.28[a] |  | 100% |  | 98% | 100% |  |  |

| Compound | log P [1, 2] | % of efficacy (protection) (Botrytis cinerea) | % of efficacy (protection) (Phytophthora infestans) | log P [1, 3] | % of efficacy (protection) (Sphaerotheca fuliginea) | % of efficacy (protection) (Septoria tritici) | log P [1, 4] | log P [1, 5] |
| --- | --- | --- | --- | --- | --- | --- | --- | --- |
| CC1(C(=O)NCc2cnn(Cc3ccccc3)c2)CC(c2ccc3ncc(Br)cc3c2)=NO1 (stereo not drawn) [compound 201] |  |  | 92% | 2.94^[a] |  | 86% |  |  |
| C#Cc1cnc2ccc(C3=NOC(C)(C(=O)NC(C)C4=NOCC4)C3)cc2c1 (stereo not drawn) [compound 338] | 2.08[a] |  | 92% |  | 100% | 100% |  |  |
| C#Cc1cnc2ccc(C3=NOC(C)(C(=O)NCc4cn(CCC)nc4C)C3)cc2c1 (stereo not drawn) [compound 83] |  | 100% | 97% | 2.39^[a] | 97% and 98% | 92% |  |  |
| C=CC1(C(=O)NCc2cn(CC)nc2C)CC(c2ccc3ncc(I)cc3c2)=NO1 (stereo not drawn) [compound 728] |  | 97% | 100% |  | 100% |  |  | 2.75[a] |
| CC(C)n1cc(CNC(=O)C2(C)CC(c3ccc4ncc(Br)cc4c3)=NO2)cn1 (stereo not drawn) [compound 199] |  | 99% | 92% | 2.5^[a] | 98% |  |  |  |
| C#Cc1cnc2ccc(C3=NOC(C)(C(=O)NCc4cnn(CC)c4)C3)cc2c1 (stereo not drawn) [compound 181] |  | 92% | 92% | 2.04^[a] | 98% |  |  |  |
| C#Cc1cnc2ccc(C3=NOC(OC)(C(=O)NC(C)(C)c4cc(C)ccn4)C3)cc2c1 (stereo not drawn) [compound 511] |  | 100% | 100% |  | 88% | 100% | 1.95[a] |  |
| CCCn1cc(CNC(=O)C2(OC)CC(c3ccc4ncc(I)cc4c3)=NO2)c(C)n1 (racemic) [compound 449] |  | 99% | 100% |  | 100% | 98% | 2.73[a] |  |
| C#Cc1cnc2ccc(C3=NOC(C)(C(=O)NCc4cn(C(C)C)nc4C)C3)cc2c1 (stereo not drawn) [compound 461] |  | 99% | 100% |  | 98% |  | 2.34[a] |  |
| C#Cc1cnc2ccc(C3=NOC(C)(C(=O)NCc4c(C)nn(C)c4C)C3)cc2c1 (stereo not drawn) [compound 183] |  |  | 86% | 1.91^[a] |  | 86% |  |  |
| CC#Cc1cnc2ccc(C3=NOC(C)(C(=O)NC(C)C)C3)cc2c1 (racemic) [compound 381] |  |  | 95% |  | 94% | 97% | 2.73[a] |  |
| C#Cc1cnc2c(Cl)cc(C3=NOC(C)(C(=O)NCc4cn(CCC)nc4C)C3)cc2c1 (stereo not drawn) [compound 551] | 2.78[a] | 98% | 81% |  |  | 93% |  |  |
| CCn1cc(CNC(=O)C2(OC)CC(c3ccc4ncc(I)cc4c3)=NO2)c(C)n1 (racemic) [compound 437] |  |  | 70% |  | 100% |  | 2.44[a] |  |
| CCCn1cc(CNC(=O)C2(C)CC(c3ccc4ncc(I)cc4c3)=NO2)c(C)n1 (stereo not drawn) [compound 455] |  | 98% | 100% |  | 98% |  | 2.75[a] |  |
| C=CC1(C(=O)NCCCOCC)CC(c2ccc3ncc(Br)cc3c2)=NO1 (stereo not drawn) [compound 733] |  |  | 100% |  | 98% | 92% |  | 3.06[a] |
| CCn1nc(C)c(CNC(=O)C2(C)CC(c3ccc4ncc(Br)cc4c3)=NO2)c1C (stereo not drawn) [compound 88] |  |  | 100% | 2.32^[a] |  |  |  |  |
| C#Cc1cnc2ccc(C3=NOC(C)(C(=O)NCc4ccnc(N5CCOCC5)c4)C3)cc2c1 (stereo not drawn) [compound 194] |  |  | 94% | 1.36^[a] |  |  |  |  |
| CCCn1cc(CNC(=O)C2(C)CC(c3cc(Cl)c4ncc(Br)cc4c3)=NO2)c(C)n1 (racemic) [compound 549] | 3.06[a] | 83% | 96% |  |  | 97% |  |  |
